Test results from patent publication US7022710B2, “A1 adenosine receptor antagonists” (CV Therapeutics, Inc., priority 2003, dated 2006).

What was measured:
human A2B AdoR = molecular target: T1, human A2B AdoR (Homo sapiens, UniProt P29275); assay: Adenosine receptor radioligand binding assay, A2B; details: competition with 3H-ZM241385, HEK-A2B cell membranes
T1 construct: expressed in transfected cells; host or cells: HEK-293 (HEK-A2B), membrane preparation
T1 sequence (P29275 1-332): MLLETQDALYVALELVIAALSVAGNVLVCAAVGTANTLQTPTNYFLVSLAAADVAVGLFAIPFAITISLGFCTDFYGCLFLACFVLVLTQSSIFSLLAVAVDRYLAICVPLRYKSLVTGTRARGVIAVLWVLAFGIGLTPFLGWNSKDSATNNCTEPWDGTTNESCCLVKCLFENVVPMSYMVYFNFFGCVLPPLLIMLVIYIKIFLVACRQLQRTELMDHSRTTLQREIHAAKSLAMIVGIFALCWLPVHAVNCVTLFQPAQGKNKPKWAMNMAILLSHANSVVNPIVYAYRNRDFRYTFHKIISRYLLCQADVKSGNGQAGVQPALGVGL
Procedure: (§1) The cDNAs for human A1, A2A, A2B or A3 AdoRs were prepared by RT-PCR from total RNA of human cells or tissues and sequenced on both strands. The expression vector containing each of these cDNAs and a second vector containing a neomycin or puromycin-resistance gene were introduced to HEK-293 or CHO cells by Lipofectin-Plus (Life Technology). Colonies were selected by growing transfected cells in the presence of neomycin or puromycin. Stably transfected cells were maintained in Dulbecco's modified Eagle's medium (DMEM) or F-12 medium with 10% fetal bovine serum, 100 μg/ml penicillin, 100 μg/ml streptomycin and appropriate concentrations of neomycin or puromycin. These stably transfected cells were referred to as HEK-“AdoR” or CHO-“AdoR” depending on the receptors that they express. The cell lines used routinely were CHO-A1, HEK-A2A, HEK-A2B.and CHO-A3 cells. In addition, hamster DDT1 MF-2 cells that express endogenous A1 AdoRs were also used to determine the binding activities of compounds for A1 AdoRs.
(§2) Monolayers of transfected cells or DDT1 MF-2 were washed with phosphate buffered saline (PBS) and harvested in a buffer containing 10 mM HEPES (pH 7.4), 10 mM EDTA and protease inhibitors. The cells were homogenized in polytron for 1 minute at setting 4 and centrifuged at 29000 g for 15 minutes at 4° C. The cell pellets were washed with a buffer containing 10 mM HEPES (pH7.4), 1 mM EDTA and protease inhibitors, and were resuspended in the same buffer supplemented with 10% sucrose. Frozen aliquots were kept at −80° C.
(§3) The affinities of compounds for A1, A2A, A2B or A3 AdoRs were determined in competition studies using radioligands such as ^3H-CPX (A1 antagonist), or ^3H-CCPA (A1 agonist), ^3H-ZM241385 (A2A antagonist) or ^3H-CGS21680 (A2A agonist), ^3H-ZM241385 (A2B antagonist) or ^125I-AB-MECA (A3 agonist) and membranes of corresponding cells. For example, to determine the affinity for A1 AdoRs, the competition assays were started by mixing 0.5–1 nM ^3H-CPX with various concentrations of test compounds and 25–100 μg membrane proteins of CHO-A1 or DDT1 MF-2 in TE buffer (50 mM Tris and 1 mM EDTA) supplemented with 1 U/ml adenosine deaminase. The assays were incubated for 60–90 minutes, stopped by filtration onto GF/B filter plates using Packard Harvester and washed four times with ice-cold TM buffer (10 mM Tris, 1 mM MgCl2, pH 7.4). The amounts of radioligands that bound to the GF/B filter plates were determined by scintillation counting. Nonspecific binding was determined in the presence of 1–10 μM of cold ligands. Bmax and KD values were calculated using GraphPad software.

human A1 AdoR = molecular target: T2, human A1 AdoR (UniProt P30542); assay: Adenosine receptor radioligand binding assay, A1; details: competition with 0.5–1 nM 3H-CPX, membranes of CHO-A1 or DDT1 MF-2 (hamster, endogenous A1)
T2 sequence (P30542 1-326): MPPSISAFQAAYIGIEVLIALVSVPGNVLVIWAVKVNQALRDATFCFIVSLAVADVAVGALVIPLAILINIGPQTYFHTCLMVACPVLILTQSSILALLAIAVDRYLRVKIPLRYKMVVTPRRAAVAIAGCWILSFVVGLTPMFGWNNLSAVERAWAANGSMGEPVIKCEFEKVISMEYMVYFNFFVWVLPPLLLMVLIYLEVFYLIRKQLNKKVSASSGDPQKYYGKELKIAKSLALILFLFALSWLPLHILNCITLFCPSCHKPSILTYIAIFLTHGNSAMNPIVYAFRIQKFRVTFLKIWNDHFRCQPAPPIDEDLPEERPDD
Procedure: as §1, §2, §3

Ki (human A2B AdoR) [µM] | Ki (human A1 AdoR) [µM] | Molecule
1.68 | 0.182 | (6-amino-9-propyl-8-pyrazolylpurin-2-yl)[2-(2,5-dimethoxyphenyl)ethyl]amine
3.64 | 0.382 | (6-amino-9-propyl-8-pyrazolylpurin-2-yl)[2-(2-chlorophenyl)ethyl]amine
7 | 1.79 | (4-{[(6-amino-9-propyl-8-pyrazolylpurin-2-yl)amino]methyl}phenyl)methan-1-ol
0.5 | 0.113 | (6-amino-9-propyl-8-pyrazolylpurin-2-yl)(2-phenylethyl)amine
7 | 0.408 | {[3-(aminomethyl)phenyl]methyl}(6-amino-9-propyl-8-pyrazolylpurin-2-yl)amine
5 | 1.09 | (6-amino-9-propyl-8-pyrazolylpurin-2-yl)[2-(4-chlorophenyl)ethyl]amine
0.16 | 0.028 | (6-amino-9-propyl-8-pyrazolylpurin-2-yl)[2-(3-fluorophenyl)ethyl]amine
1 | 0.015 | CCn1c(-n2cccn2)nc2c(N)nc(NCc3ccccc3)nc21 [(6-amino-9-ethyl-8-pyrazolylpurin-2-yl)benzylamine]
2.3 | 0.066 | (6-amino-9-propyl-8-pyrazolylpurin-2-yl)[2-(4-fluorophenyl)ethyl]amine
